# Experimental data taken from patent US20220226338A1, “Methods of Treating Cancer Using CHK1 Inhibitors” (Sierra Oncology, Inc., priority 2019, published 2022).
# Where two headings read alike, the source gives them in different places.
# Key:
# [1] = SRA737 plasma and tumor concentrations in HT29 xenograft model; type: in vivo, mice; details: mouse, plasma, oral, read-out: plasma concentration with anti-tumor activity in preclinical efficacy models
# Method: The effect of SRA737 on Gemcitabine induced CHK1 S296 autophosphorylation was assessed as described in Walton et al. (Oncotarget. 2016 January 19; 7(3): 2329-2342), herein incorporated by reference for all it teaches. Briefly, mice bearing HT29 tumor xenografts were administered (i) vehicle control or (ii) gemcitabine (100 mg/kg in saline, IV) or (iii) a combination of SRA737 (12.5, 25, 50 or 100 mg/kg in DTPW, oral) and gemcitabine (100 mg/kg) with SRA737 administered 24 hours following gemcitabine administration (n=3 per time point per treatment). […] Exposure in the tumor was greater than 10-fold higher than in plasma. The circulating plasma concentration at this 24-hour timepoint corresponded to a free drug concentration of approximately 6 nM (2 ng/mL) based on plasma protein binding in mice of 94%.
# [2] = Single dose PK, mouse; type: in vivo; details: Mouse oral 10 mg/kg single dose
# Text: Several studies have been conducted to evaluate the PK properties of SRA737, such as the absorption (in vitro permeability assays and in vivo PK following IV and oral administration), distribution (in vivo tissue distribution and in vitro plasma protein binding) and metabolism (in vitro hepatocyte and CYP inhibition and induction studies) of SRA737.
# The PK of SRA737 have been determined in the mouse, rat, dog and monkey following oral and IV administration (Table 3). […] An acceptable terminal elimination t1/2 was also observed in each species. […] The plasma protein binding of SRA737 at 1 and 10 μM was examined in mouse, minipig, monkey and human plasma using ultracentrifugation and in dog plasma (10 μM) using rapid equilibrium dialysis.
# [3] = test system: cryopreserved hepatocytes; test: Rank order of hepatocyte stability across species; type: in vitro ADME, human, mouse, rat, dog, minipig and monkey; details: 10 μM, up to 4 hours
# Method: The formation of SRA737-related metabolites was determined in cryopreserved hepatocytes from human, mouse, rat, dog, minipig and monkey samples after incubation with SRA737 at a nominal concentration of 10 μM for up to 4 hours. […] In the human hepatocyte preparation, approximately 67% of the parent remained after 4 hours of incubation compared to 75% and 7% in the rat and minipig preparations, respectively. Eight human SRA737 metabolites were observed. All SRA737 metabolites formed by human hepatocytes were also formed by monkey hepatocytes. Six metabolites were present at equal or greater abundance in the monkey.
# [4] = Excretion in urine and feces, mice; type: in vivo; details: 24-hour collection
# Method: The excretion of SRA737 has been studied in mice and rats administered SRA737 at either 5 mg/kg IV or 10 mg/kg orally. Urine and feces were collected for a 24-hour period after dosing. In mice, renal excretion of intact SRA737 was consistently low (less than 10% of dose) after both oral and IV administration. Following IV administration of SRA737, less than 8% of the dose was recovered as intact drug in the feces while after oral administration this figure was less than 3%. Excretion of intact SRA737 was lower in the rat than in the mouse with <1% of dose excreted renally over 24 hours and less than 1.5% of dose excreted into the feces over 24 hours.
# [5] = test system: CYP1A2; test: CYP induction in vitro; type: in vitro ADME; details: positive control omeprazole, minimal, concentration dependent
# [6] = mouse, in vivo
# Method: Reference source not found.6.
# These findings were reversible on cessation of drug administration.
# The MTD was 75 mg/kg/day (225 mg/m^2/day) in the mouse and the HNSTD was […] (350 mg/m^2/day) in the minipig.
# [7] = SRA737 monotherapy clinical study (SRA737-01), safety and tolerability; type: in vivo
# Method: A Phase 1 clinical trial was conducted in ‘all comers,’ i.e. no genetic selection was performed, to establish safety, tolerability and pharmacokinetics (“Dose Escalation Phase”). Cohorts consisting initially of a single subject received escalating doses of SRA737, starting in Cohort 1 with 20 mg/day administered orally on a continuous daily dosing schedule in 28 day cycles. the dose was escalated until the maximum tolerated dose (MTD) was identified.
# In the Dose Escalation Phase, 18 subjects received SRA737 in 9 dose level cohorts, from 20 to 1300 mg QD; median treatment duration 62.5 days (range 1 to 226). […] Two of 3 subjects experienced DLTs at the 1300 mg once daily dose, each being an inability to receive 75% of the planned SRA737 dose due to GI intolerability, with the individual GI effects being low grade. […] A cohort receiving 500 mg twice daily was added to determine if a twice daily dosing schedule can improve GI tolerability, given the half-life of SRA737 is approximately 10 hours. One of 6 subjects experienced DLTs in the 500 mg twice daily cohort; this was an inability to receive 75% of the planned SRA737 dose due to grade 4 thrombocytopenia with grade 3 neutropenia and anemia.
# A Dose Escalation phase employed an accelerated titration design starting at 20 mg SRA737, administered QD orally in 28-day cycles. Incremental dose escalations in single-subject cohorts were followed by a rolling-6 design once SRA737-related ≥Grade 2 toxicity was observed during Cycle 1.
# Dose limiting toxicities (DLTs) were assessed following a pharmacokinetic (PK) lead-in dose, and throughout Cycle 1 of treatment, and were defined as adverse events highly probably or probably related to SRA737: grade ≥4 neutropenia or thrombocytopenia lasting >7 days, grade ≥3 febrile neutropenia or thrombocytopenia with bleeding, grade ≥3 non-hematologic toxicity, or the inability to receive ≥75% of the planned SRA737 dose in Cycle 1 due to drug-related toxicity.
structure (smiles),measurement,setting,value
"N#Cc1cnc(Nc2cc(NCC3CNCCO3)c(C(F)(F)F)cn2)cn1 (centres unmarked) [SRA737, 5-[[4-[[morpholin-2-yl]methylamino]-5-(trifluoromethyl)-2-pyridyl]amino]pyrazine-2-carbonitrile]",concentration at 24 h,[1]; equivalent of 100 nM,~37.9 ng/mL
same,concentration at 24 h,"[1]; mice, sustained for 24 hours, PK/PD benchmark",100 nM
same,Foral,[2],105%
same,rank order of stability from most stable to least stable,[3],rat≈mouse>monkey˜human>>dog>>minipig
same,renal excretion of intact SRA737,[4]; 5 mg/kg IV or 10 mg/kg oral,less than 10 % of dose
same,intact drug recovered in the feces,[4]; IV administration,less than 8 % of dose
same,intact drug recovered in the feces,[4]; oral administration,less than 3 % of dose
same,induction of CYP1A2,[5],< 10 % positive control
same,changes in reproductive organs,[6],"changes in reproductive organs, particularly the testes, were also observed"
same,dose-dependent toxicological findings,[6],bone marrow toxicity
same,AST increased,"[7]; human, in vivo",3%
same,TEAEs mild to moderate in severity (Grade 1/Grade 2),"[7]; human, in vivo",90%
same,abdominal pain,"[7]; human, in vivo",3%
same,abdominal pain upper,"[7]; human, in vivo",3%
same,"diarrhea, most common TEAEs","[7]; human, in vivo",68%
same,disease progression,"[7]; human, in vivo",8%
same,dose-limiting toxicities (DLTs),"[7]; human, in vivo",without any dose-limiting toxicities
same,dyspnea,"[7]; human, in vivo",3%
same,emergent or cumulative toxicity and/or declining tolerability,"[7]; human, in vivo",No evidence of emergent or cumulative toxicity and/or declining tolerability
same,fatigue,"[7]; human, in vivo",3%
same,"fatigue, most common TEAEs","[7]; human, in vivo",47%
same,hyponatremia,"[7]; human, in vivo",4%
same,infection,"[7]; human, in vivo",4%
same,lymphocyte count decreased,"[7]; human, in vivo",5%
same,nausea,"[7]; human, in vivo",3%
same,"nausea, most common TEAEs","[7]; human, in vivo",66%
same,neutropenia,"[7]; human, in vivo",8%
same,pleural effusion,"[7]; human, in vivo",3%
same,rash maculo-papular,"[7]; human, in vivo",3%
same,recommended monotherapy dose,"[7]; human, in vivo",800 mg/day
same,subjects with at least one SRA737-related event,"[7]; human, in vivo",91%
same,tolerability of 800 mg once daily,"[7]; human, in vivo",overall better tolerated than 1000 mg
same,"vomiting, most common TEAEs","[7]; human, in vivo",51%
same,subjects experiencing DLTs,"[7]; human, in vivo, 28 days",3 subjects
same,maximum tolerated dose (MTD),[7]; monotherapy,1000 mg/day
same,recommended dose for expansion cohorts (RP2D),[7]; monotherapy,800 mg QD
same,relatedness of Grade 5 TEAEs,[7]; monotherapy,none were considered related to SRA737
same,subjects with treatment-emergent adverse events (TEAEs),[7]; monotherapy,106 (99%) n (%)
same,maximum tolerated dose (MTD),"[7]; monotherapy, once daily",1000 mg QD
same,maximum tolerated dose (MTD),"[7]; monotherapy, twice daily",500 mg BID
same,number of Grade 5 TEAEs,"[7]; monotherapy, up to 30-days post last treatment",Six
